Experimental data taken from patent US11945881B2, “Neoantigens expressed in ovarian cancer and their uses” (Janssen Biotech, Inc., priority 2020, dated 2024).

Legend:
CD8+ T cells = assay: exogenous autologous normal donor restimulation assay, TNFα/IFNγ double positive CD8+ T cells by flow cytometry; assay type: cell-based, human; settings: for Fold change (CD8+) vs. DMSO: maximum CD8+ T-cell response (TNFα and IFNγ); for Fold change (CD8+) vs. DMSO / Frequency (TNFα + IFNγ + CD8 T cells): donor independent, peptide pool 10 μg/mL, healthy donors; for Frequency (TNFα + IFNγ + CD8 T cells): maximum CD8+ T-cell response; for Immunogenic (yes/no): positive if CD8+ and/or CD4+ double positive TNFα/IFNγ frequency >=3-fold over DMSO and at least 0.01%
Description: (§1) The immunogenicity of neoantigens was assessed using the exogenous autologous normal donor restimulation assay. […] The lyophilized peptides were solubilized in 100% DMSO.
(§2) CD1c+ Dendritic Cells (CD1c+DC) isolated from human healthy PBMCs were thawed using media (IMDM (Gibco) supplemented with glutamine, HEPES, 5% human serum (Sigma), and 1× Pen-Strep). DC cells were resuspended in media supplemented with IL-4 (Peprotech, 20 ng/mL) and GM-CSF (Gibco, 20 ng/mL), plated in 6 well microplates, and rested overnight at 37° C. and 5% CO2 incubator. The following day, DC cells were counted and plated in a 96 well round bottom microplate at a concentration of 30,000 viable cells per well. Lyophilized neoantigen peptide pools (15-mer peptides with 8-mer overlapping peptide sequences) were solubilized in 100% DMSO with a stock concentration of 20 mg/mL Neoantigen peptides pools were added to DCs for a final concentration of 10 μg/mL and rested for 2 hours at 37° C. and 5% CO2 incubator. CEF Peptide Pool “Plus” (Cellular Technologies, Ltd.) was utilized as a positive control (each viral peptide at a final concentration of 4 ug/ml) and DMSO at the same final concentration (0.05%) as the experimental peptides was utilized as a negative control. After 2 hours, DC cells were irradiated with 50 gray of ionizing radiation. Autologous CD3+ Pan-T cells isolated from human normal PBMCs were thawed using media. Following irradiation, autologous Pan-T cells were added to the irradiated DCs at 300,000 viable cells per well. Human IL-15 (Peprotech) was added to all wells at final concentration of 10 ng/ml. Plates were incubated at 37° C. and 5% CO2 incubator for a total of 12 days. Media was refreshed every 2-3 days with IL-15 (R&D System, 10 ng/mL final concentration) and IL-2 (R&D systems, 10 IU/mL final concentration).
(§3) On Day 11, cells were re-stimulated with identical experimental peptide pools or controls, at same concentration as peptide stimulation on Day 1. Protein Inhibitor Cocktail (eBioscience) was added to every well and plate was incubated overnight for 14-16 hours at 37° C. and 5% CO2 incubator. On Day 12, cells were stained for surface and intracellular flow cytometry analysis. The cells were washed with PBS and stained with Live/Dead Fixable Aqua Dead Cell stain (Thermo-Fisher). Following the live/dead stain, cells were blocked using Biotin-Fre Fc Receptor Blocker (Accurate Chemical & Scientific Corp). Extracellular cellular flow panel ([…] per well in 50 μL) consisted of CD3 PerCP-Cy5.5 (Biolegend), CD4 BV421 (Biolegend), and CD8 APC-Cy7 (Biolegend). After extracellular staining, cells were fixed and permeabilized using Foxp3/Transcription Factor Staining Buffer Set (eBioscience) and stained for intracellular proteins (1:50 dilution) using TNFα FITC (R&D Systems) and IFNγ BV785 (Biolegend). Cells were washed and resuspended in stain buffer, analyzed, and recorded in a BD Celesta flow cytometer.
(§4) Flow cytometry analysis was conducted on FlowJo v10.6 software. Cells were gated on live, singlet, CD3+, CD4+ and CD8+ T cells. The CD8+ and CD4+ T cells were analyzed for TNFα and IFNγ expression.
(§5) The immunogenicity of neoantigens was first investigated in 9-16 healthy donors.

CD4+ T cells = assay: exogenous autologous normal donor restimulation assay, TNFα/IFNγ double positive CD4+ T cells by flow cytometry; assay type: cell-based, human; settings: donor independent, peptide pool 10 μg/mL, healthy donors; for Fold change (CD4+) vs. DMSO: maximum CD4+ T-cell response (TNFα and IFNγ); for Frequency (TNFα + IFNγ + CD4 T cells): maximum CD4+ T-cell response
Description: as §1, §2, §3, §4, §5

Sequence	Fold change (CD8+) vs. DMSO (CD8+ T cells) [fold]	Frequency (TNFα + IFNγ + CD8 T cells) (CD8+ T cells) [%]	Immunogenic (yes/no) (CD8+ T cells)	Fold change (CD4+) vs. DMSO (CD4+ T cells) [fold]	Frequency (TNFα + IFNγ + CD4 T cells) (CD4+ T cells) [%]
AAEQAGCMQCLI [FUS8, neoantigen, gene fusion TYSND1->AIFM2]	6.27	0.12	yes	5.93	0.029
ALTVVPPGLRLDRVLLHLW [FUS27, neoantigen, gene fusion C17orf99->SYNGR2]	19.77	0.43	Yes	10.37	0.021
AMAKKQRPDTAFWVQH [AS12, neoantigen, alternative splicing of IQGAP3]	6.05	0.13	Yes	8.4	0.017
APILAAIGIGRLLCMDKIPATASLTP [FUS3, neoantigen, gene fusion PTH2R->LOC101927960]	158.8	0.74	yes	5.02	0.025
APSCGVSRAICDRGCH [AS79, neoantigen, alternative splicing of FBN3]	2.88	0.076	Yes	5.85	0.12
CDPAAPRAVSLPGRQGSEGGEGRGLGSRPAVLGRHSSGEGGGPWGELP [AS133, neoantigen, alternative splicing of HRAS]	171.88	0.84	Yes	54.15	0.16
CLRPSLSLASRGFQNP [AS88, neoantigen, alternative splicing of UPK3B]	3.13	0.063	Yes	15.85	0.062
EEDREKYRWMAPFVPGQVWTWEYFL [AS28, neoantigen, alternative splicing of HYDIN]	8.82	0.15	Yes	12.43	0.17
FKIPKFSIVLSSNSAFRCDPLSSRPRCFGGSLEAP [AS27, neoantigen, alternative splicing of GTSE1]	108.36	0.35	Yes	31.11	0.063
FLIVAEIVTLLIAFI [FUS20, neoantigen, gene fusion CMTM8->CMTM7]	28.23	0.54	Yes	2.36	0.019
FQETWLAEDAAAGALSPCTIPTPPQPPLLSLPTSSGTRQ [AS97, neoantigen, alternative splicing of ETV4]	433.66	1.34	Yes	6.12	0.15
GDPAKVVEIPRLL [AS31, neoantigen, alternative splicing of MECR]	4.54	0.045	Yes	6.91	0.016
GFILIGWGAGNLVLETSSGFIKHRS [AS69, neoantigen, alternative splicing of PTH2R]	260.42	1	Yes	9.21	0.011
GGLTLGARNTLTHGSPGPSQATVAVAPLSGRAAVSAAGGCVFLLLPACVPRRCHWIP [FUS16, neoantigen, gene fusion NDUFA11->FUT5]	261.6	5.69	yes	12.58	0.045
GTMEVKSKKKQTTVPLVQTR [AS67, neoantigen, alternative splicing of PARD6B]	6.36	0.17	Yes	3.15	0.028
HFECYHCEIRIPRKSNGIRGFLLTWRRDGNTSTSVQQTTSSL [FUS11, neoantigen, gene fusion AJUBA->HAUS4]	3.3	0.071	yes	39.13	0.14
HFSRLCGPVSHLSAHLAHLR [AS119, neoantigen, alternative splicing of SMAD6]	1.32	0.037	Yes	4.17	0.027
IGKGSFGKFLEDATHMV [AS36, neoantigen, alternative splicing of STK32C]	7.44	0.45	Yes	3.36	0.04
IPPHLQWESTRQTEWISVREFHLESSLYP [AS61, neoantigen, alternative splicing of IGF2BP3]	4.86	0.13	Yes	4.26	0.038
KHHLWALEAAWLSGRSPLSEPQLPLQPSGNSSSV [AS120, neoantigen, alternative splicing of STRA6]	6.24	0.067	Yes	2.01	0.013
KLCSRQRPDCQPVDSRHGPILSIQHLISALHTGDG [AS123, neoantigen, alternative splicing of VWA2]	115.04	1.09	yes	3.7	0.024
KNFITCFKGGHASAAEPRKGR [FUS22, neoantigen, gene fusion C8orf82->LRRC24]	8.05	0.087	Yes	8.67	0.31
KRPMASEVSFILIQWLLKP [AS146, neoantigen, alternative splicing of PIP5K1A]	24.2	0.26	Yes	8.88	0.037
